Results: paper PMC7570910, “8-Hydroxyquinoline Glycoconjugates Containing Sulfur at the Sugar Anomeric Position—Synthesis and Preliminary Evaluation of Their Cytotoxicity” (Molecules, 2020)

Experiments:
HCT-116 cells = assay: MTT cytotoxicity assay, HCT-116; format: cell-based; settings: Homo sapiens, incubation time 24 h, mean ± SD (n = 3)
MCF-7 cells = assay: MTT cytotoxicity assay, MCF-7; format: cell-based; settings: Homo sapiens, MCF7, incubation time 72 h, mean ± SD (n = 3)
Protocol: In vitro cytotoxicity studies of the obtained building blocks and glycoconjugates were carried out on cell lines characterized by the high expression of GLUT transporters and the strongly changed glucose metabolism (strong Warburg effect). […] Cytotoxicity was evaluated using the MTT assay.
The human cell line MCF-7 was obtained from collections at the Maria Sklodowska-Curie Memorial Cancer Center and Institute of Oncology, branch in Gliwice, Poland. […] The culture media were purchased from EuroClone and HyClone. Fetal bovine serum (FBS) was delivered by EURx, Poland, and Antibiotic Antimycotic Solution (100×) by Sigma-Aldrich, Germany. The cells were cultured under standard conditions at 37 °C in a humidified atmosphere at 5% CO2.
The viability of the cells was determined using an MTT (3-[4,5–dimethylthiazol-2-yl]-2,5-diphenyltetrazolium bromide) test (Sigma-Aldrich). Stock solutions of tested compounds were prepared in DMSO and diluted with the appropriate volumes of the growth medium directly before the experiment. […] The cell cultures were incubated for 24 h at 37 °C in a humidified atmosphere of 5% CO2. Then, the culture medium was removed, replaced with the solution of the tested compounds in medium with varying concentrations, and incubated for further 24 h or 72 h. After that, the medium was removed, and the MTT solution (50 µL, 0.5 mg/mL in PBS) was added. After 3 h of incubation, the MTT solution was removed, and the precipitated formazan was dissolved in DMSO. Finally, the absorbance at the 570 nm wavelength was measured spectrophotometrically with the plate reader. The experiment was conducted in at least three independent iterations with four technical repetitions. The IC50 values were calculated using CalcuSyn software (version 2.0, Biosoft, Cambridge, UK).

[1] = target: T1, β-galactosidase from Aspergillus oryzae (Aspergillus oryzae, UniProt Q2UCU3); assay: Glycoconjugate stability under the action of β-galactosidase (hydrolysis followed by TLC); format: in vitro ADME; settings: 0.089 unit enzyme, 5 mM substrate, phosphate-citrate buffer pH 4.5, 30 °C, TLC at 10 min to 24 h
T1 construct: purchased Sigma-Aldrich G5160
Protocol: As part of the research, the effect of introducing a sulfur atom into the anomeric position of sugar was assessed. […] This was particularly evident for the 8-HQ derivatives 51 and 52, for which the cytotoxic activity was about twice as high as that of their structural counterparts with an anomeric oxygen atom (Figure 3). Unfortunately, an increase in cytotoxicity for glycoconjugates containing anomeric sulfur was observed, both to neoplastic cells and to healthy cells. […] In order to verify this assumption, two galactoconjugates 56 and 64 (being the deprotected counterparts of galactoconjugates 52 and 60) and their two analogs with anomeric oxygen were chosen and subjected to hydrolysis reactions using β-galactosidase from Aspergillus oryzae.
8-Hydroxyquinoline Glycoconjugates Containing
Sulfur at the Sugar Anomeric Position - Synthesis and Preliminary Evaluation of Their Cytotoxicity […]
The following reagents were pipetted into a test tube: 0.4 mL of 20 mM Phosphate-Citrate Buffer (C) and 0.5 mL of the appropriate 10 mM Substrate Solution ( D1-D4), which then thoroughly mixed and equilibrated to 30 °C with a thermoblock. […] The progress of the reactions was monitored by thin-layer chromatography (TLC) in a CHCl3:CH3OH (5:1) eluents system. […]

T1 sequence (Q2UCU3 19-1005): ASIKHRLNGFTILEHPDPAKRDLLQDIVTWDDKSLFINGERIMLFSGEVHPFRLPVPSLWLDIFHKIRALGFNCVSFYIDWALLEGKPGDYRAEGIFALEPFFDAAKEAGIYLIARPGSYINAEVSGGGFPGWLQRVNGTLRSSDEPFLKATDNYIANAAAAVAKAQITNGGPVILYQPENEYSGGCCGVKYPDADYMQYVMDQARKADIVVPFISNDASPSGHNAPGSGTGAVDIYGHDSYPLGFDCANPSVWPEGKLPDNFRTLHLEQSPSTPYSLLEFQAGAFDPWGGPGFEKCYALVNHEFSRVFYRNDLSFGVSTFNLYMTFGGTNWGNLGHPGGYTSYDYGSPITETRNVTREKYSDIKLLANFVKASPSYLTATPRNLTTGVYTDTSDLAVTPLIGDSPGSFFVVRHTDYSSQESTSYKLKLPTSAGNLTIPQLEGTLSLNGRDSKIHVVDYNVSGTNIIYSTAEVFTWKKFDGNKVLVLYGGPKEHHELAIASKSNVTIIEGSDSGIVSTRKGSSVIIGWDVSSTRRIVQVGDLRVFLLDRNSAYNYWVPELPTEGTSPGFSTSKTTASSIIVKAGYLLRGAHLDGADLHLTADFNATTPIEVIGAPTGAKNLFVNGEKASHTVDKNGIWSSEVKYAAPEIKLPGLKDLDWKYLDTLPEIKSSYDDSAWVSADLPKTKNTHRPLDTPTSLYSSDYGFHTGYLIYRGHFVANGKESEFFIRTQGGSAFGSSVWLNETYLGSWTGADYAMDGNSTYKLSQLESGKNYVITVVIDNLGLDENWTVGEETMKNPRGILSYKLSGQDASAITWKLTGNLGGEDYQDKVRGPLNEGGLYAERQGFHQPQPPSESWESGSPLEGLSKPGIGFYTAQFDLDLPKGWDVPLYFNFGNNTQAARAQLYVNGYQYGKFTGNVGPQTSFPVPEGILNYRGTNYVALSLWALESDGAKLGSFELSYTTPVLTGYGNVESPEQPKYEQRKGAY

Question: How did the IC50 (HCT-116 cells) turn out when `OC[C@H]1O[C@@H](SCc2cn(CCCOc3cccc4cccnc34)nn2)[C@H](O)[C@@H](O)[C@H]1O` [Compound 64] was run?
Answer: Its IC50 is > 800 µM.

Question: What about the IC50 (MCF-7 cells) of the same compound?
Answer: The IC50 was > 800 µM.

Question: And the “Hydrolysis in the presence of β-galactosidase” value [1]?
Answer: The value was “did not undergo hydrolysis”.
